From paper PMC10610115, “Identification of Potential JNK3 Inhibitors: A Combined Approach Using Molecular Docking and Deep Learning-Based Virtual Screening” (Pharmaceuticals, 2023)

Biological target: T1, JNK3 (c-Jun N-terminal kinase 3) (Homo sapiens, UniProt P53779)
T1 construct: gene MAPK10
Assay: HTRF-type kinase assay (Cryptate/XL665), dose response
Assay type: biochemical

T1 sequence (P53779 whole entry): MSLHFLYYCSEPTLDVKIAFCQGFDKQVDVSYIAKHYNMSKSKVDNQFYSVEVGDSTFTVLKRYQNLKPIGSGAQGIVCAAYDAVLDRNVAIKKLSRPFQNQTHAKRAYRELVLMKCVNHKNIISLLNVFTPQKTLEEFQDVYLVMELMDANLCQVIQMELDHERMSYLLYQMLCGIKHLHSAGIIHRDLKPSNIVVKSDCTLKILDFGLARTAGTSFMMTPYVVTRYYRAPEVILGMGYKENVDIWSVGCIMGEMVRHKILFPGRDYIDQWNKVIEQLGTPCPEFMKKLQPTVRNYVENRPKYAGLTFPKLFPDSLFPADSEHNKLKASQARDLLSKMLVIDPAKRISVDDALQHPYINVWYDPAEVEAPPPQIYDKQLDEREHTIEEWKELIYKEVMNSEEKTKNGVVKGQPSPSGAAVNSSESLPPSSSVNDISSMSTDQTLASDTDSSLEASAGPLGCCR

Molecule CCc1nc(-c2cccc(C)c2)c(-c2ccnc(NC(=O)c3ccccc3)c2)s1 [compound 6, N-(4-(2-ethyl-4-(m-tolyl)thiazol-5-yl)pyridin-2-yl)benzamide] has an IC50 of 130 nM.
